Experimental data published in patent publication US8822691B2, “Pesticidal carboxamides” (Bayer CropScience AG, priority 2009, dated 2014).

What was measured:
Format in all cases: in vivo
Tetranychus urticae = assay: Test against two-spotted spider mite (Tetranychus urticae), spray; settings: active compound concentration of 500 ppm, adult mites on kidney bean, after 7 days; for pest or weed control at 500 ppm: Tetranychus urticae, 168 h, read-out: acaricidal activity
Procedure: (§1) Unless not mentioned otherwise, the test solutions were prepared as follows:
(§2) Containing as solvent: Dimethylformamide, 3 parts by weight; and as emulsifier: Polyoxyethylene alkyl phenyl ether, 1 part by weight
(§3) To prepare the test solution, 1 part by weight of an active compound is mixed with the above-mentioned amount of solvent containing the above-mentioned amount of emulsifier, and the mixture is diluted with water to the desired concentration.
50 to 100 adult mites of Tetranychus urticae were inoculated to leaves of kidney bean at two-leaf stage planted in a pot of 6 cm in diameter. After one day, test solution at the appropriate concentration was sprayed thereon in a sufficient amount using a spray gun. After the spraying, the plant pot was placed inside a greenhouse, and after 7 days, the acaricidal activity was calculated. An acaricidal activity of 100% means that all mites were killed, whereas an acaricidal activity of 0% means that no mite was killed.

Aulacophora femoralis = assay: Test against cucurbit leaf beetle (Aulacophora femoralis), leaf dip; settings: active compound concentration of 500 ppm, second instar larvae on cucumber leaves, after 7 days; for pest or weed control at 500 ppm: Aulacophora, foliar, 168 h, read-out: insecticidal activity
Procedure: as §1, §2, §3
Leaves of cucumber were immersed in the test solution at the appropriate concentration, and the leaves were dried in air. The leaves were then put in a plastic cup containing sterilized black soil and five Aulacophora femoralis at second instar larvae were released in the cup. The cups were placed in a temperature-controlled chamber at 25° C. After 7 days, the number of dead larvae was counted, and thus the insecticidal activity was calculated. An insecticidal activity of 100% means that all larvae were killed, whereas an insecticidal activity of 0% means that no larva was killed.

Spodoptera litura = assay: Test against tobacco cutworm (Spodoptera litura) larvae, leaf dip; settings: active compound concentration of 100 ppm, third instar larvae on sweet potato leaves, after 7 days; for pest or weed control at 100 ppm: foliar, 168 h, read-out: insecticidal activity
Procedure: as §1, §2, §3
Leaves of sweet potato were immersed in the test solution at the appropriate concentration, and the leaves were dried in air. The leaves were then placed in a petri dish having a diameter of 9 cm, and ten Spodoptera litura at third instar larvae were released therein. The petri dishes were placed in a temperature-controlled chamber at 25° C. After 2 days and 4 days more sweet potato leaves were added. After 7 days, the number of dead larvae was counted to calculate the insecticidal activity. An insecticidal activity of 100% means that all larvae were killed, whereas an insecticidal activity of 0% means that no larva was killed. In the current test, the results of two petri dishes for each treatment were averaged.

Boophilus microplus [1] = assay: Boophilus microplus (dip); settings: for mortality at 100 ppm: Rhipicephalus microplus, 168 h, read-out: activity (mortality)
Procedure: Solvent: Dimethylsulfoxid
To produce a suitable preparation of active compound, 10 mg of active compound are dissolved in 0.5 ml solvent, and the concentrate is diluted with water to the desired concentration. Eight to ten adult engorged female Boophilus microplus ticks are placed in perforated plastic beakers and immersed in aqueous compound solution for one minute. Ticks are transferred to a filter paper in a plastic tray. Egg deposition of fertile eggs is monitored after. After 7 days mortality in % is determined. 100% means that all the ticks have been killed; 0% means that none of the ticks have been killed.

Boophilus microplus [2] = assay: Boophilus microplus-test (injection); settings: Rhipicephalus microplus, 168 h, read-out: activity (mortality in %; 100% means that all eggs are infertile)
Procedure: (§4) Solvent: dimethyl sulfoxide
To produce a suitable preparation of active compound, 10 mg of active compound are dissolved in 0.5 ml solvent, and the concentrate is diluted with solvent to the desired concentration. Five adult engorged female ticks (Boophilus microplus) are injected with 1 μl compound solution into the abdomen. Ticks are transferred into replica plates and incubated in a climate chamber for a period of time. Egg deposition of fertile eggs is monitored.
After 7 days mortality in % is determined. 100% means that all eggs are infertile; 0% means that all eggs are fertile.

Lucilia cuprina = Lucilia cuprina (48 h) larval test; settings: Lucilia cuprina, 48 h, read-out: activity (larval mortality)
Procedure: Species: Lucilia cuprina 1st instar larvae (age 24 hrs)
as §4
10 mg active compound are dissolve in 0.5 ml dimethyl sulfoxide. Serial dilutions are made to obtain the desired rates. Approximately 20 Lucilia cuprina 1st instar larvae are transferred into a test tube containing 1 cm^3 of minced horse meat and 0.5 ml aqueous dilution of test compound. After 48 hrs percentage of larval mortality are recorded. 100% efficacy all larvae are killed, % efficacy normally developed larvae after 48 hrs.

Musca domestica = assay: Musca domestica-test; settings: Musca domestica, 48 h, read-out: activity (mortality)
Procedure: as §4
To produce a suitable preparation of active compound, 10 mg of active compound are dissolved in 0.5 ml solvent, and the concentrate is diluted with water to the desired concentration. Prior to the assay, a piece of kitchen sponge is soaked with a mixture of sugar and compound solution and placed into a container. 10 adults (Musca domestica) are placed into the container and closed with a perforated lid. After 2 days mortality in % is determined. 100% means that all the flies have been killed; 0% means that none of the flies have been killed.

Ctenocephalides felis = assay: Ctenocephalides felis-test (CTECFE); settings: Ctenocephalides felis, in Bos taurus, 48 h, read-out: activity (mortality), application rate of 100 ppm in cattle blood; adult unfed fleas; after 2 days
Procedure: as §4
To produce a suitable preparation of active compound, 10 mg of active compound are dissolved in 0.5 ml solvent, and the concentrate is diluted with cattle blood to the desired concentration. Approximately 20 adult unfed (Ctenocepahlides felis) are placed in flea chambers. The blood chamber, sealed with parafilm on the bottom, are filled with cattle blood supplied with compound solution and placed on top of the flea chamber, so that the fleas are able to suck the blood. The blood chamber is heated to 37° C. whereas the flea chamber is kept at room temperature. After 2 days mortality in % is determined. 100% means that all the fleas have been killed; 0% means that none of the fleas have been killed.

SMILES | acaricidal activity (Tetranychus urticae) [%] | insecticidal activity (Aulacophora femoralis) [%] | insecticidal activity (Spodoptera litura) [%] | activity (mortality) (Boophilus microplus [1]; application rate of 100 ppm, dip of adult engorged female ticks for one minute, after 7 days) [%] | pest or weed control at 500 ppm (Aulacophora femoralis) [%] | mortality at 0.02 mg (Boophilus microplus [2]) [%] | pest or weed control at 100 ppm (Spodoptera litura) [%] | mortality at 100 ppm (Lucilia cuprina) [%] | mortality at 100 ppm (Musca domestica) [%] | mortality at 100 ppm (Ctenocephalides felis) [%] | pest or weed control at 500 ppm (Tetranychus urticae) [%] | mortality at 100 ppm (Boophilus microplus [1]) [%]
N#Cc1ccc2cc(C(=O)Nc3c(I)cc(C(F)(C(F)(F)F)C(F)(F)F)cc3I)ccc2n1 [2-69] | 100 | 100 | 100 | 100 | – | – | – | – | – | – | – | –
Cc1cc(C(F)(C(F)(F)F)C(F)(F)F)cc(C)c1NC(=O)c1cc(Cl)c2ncc(Cl)cc2c1 [2-214, 3,8-dichloro-N-[4-(1,1,1,2,3,3,3-heptafluoropropan-2-yl)-2,6-dimethylphenyl]quinoline-6-carboxamide] | – | – | – | – | 100 | 100 | 100 | 90 | – | – | – | –
Cc1cc(C(F)(C(F)(F)F)C(F)(F)F)cc(C)c1NC(=O)c1ccc2nc(C#N)ccc2c1 [Compound No. 2-20, 2-cyano-N-[4-(1,1,1,2,3,3,3-heptafluoropropan-2-yl)-2,6-dimethylphenyl]quinoline-6-carboxamide] | – | – | – | – | 100 | 100 | 100 | 100 | 95 | 100 | – | –
N#Cc1ccc2cc(C(=O)Nc3c(Br)cc(C(F)(C(F)(F)F)C(F)(F)F)cc3OC(F)F)ccc2n1 [Compound No. 2-154, N-[2-bromo-6-(difluoromethoxy)-4-(1,1,1,2,3,3,3-heptafluoropropan-2-yl)phenyl]-2-cyanoquinoline-6-carboxamide] | – | – | – | – | 100 | – | 100 | – | – | – | 100 | 90
N#Cc1ccc2cc(C(=O)Nc3c(Br)cc(C(F)(C(F)(F)F)C(F)(F)C(F)(F)F)cc3OC(F)F)ccc2n1 (centres unmarked) [Compound No. 2-173, N-[2-bromo-6-(difluoromethoxy)-4-(1,1,1,2,3,3,4,4,4-nonafluorobutan-2-yl)phenyl]-2-cyanoquinoline-6-carboxamide] | – | – | – | – | 100 | – | 100 | – | – | – | 100 | 100
O=C(Nc1c(I)cc(C(F)(C(F)(F)F)C(F)(F)C(F)(F)F)cc1OC(F)F)c1ccc2ncccc2c1 (centres unmarked) [Compound No. 2-174, N-[2-(difluoromethoxy)-6-iodo-4-(1,1,1,2,3,3,4,4,4-nonafluorobutan-2-yl)phenyl]quinoline-6-carboxamide] | – | – | – | – | 100 | 100 | 100 | 100 | 100 | 100 | 100 | –
O=C(Nc1c(Br)cc(C(F)(C(F)(F)F)C(F)(F)Br)cc1OC(F)F)c1ccc2ncccc2c1 (centres unmarked) [Compound No. 2-201, N-[2-bromo-4-(1-bromo-1,1,2,3,3,3-hexafluoropropan-2-yl)-6-(difluoromethoxy)phenyl]quinoline-6-carboxamide] | – | – | – | – | 100 | 100 | 100 | 100 | 100 | 100 | 100 | –
O=C(Nc1c(Br)cc(C(F)(C(F)(F)F)C(F)(F)Br)cc1OC(F)F)c1ccc2c(ccc[n+]2[O-])c1 (centres unmarked) [Compound No. 2-202, N-[2-bromo-4-(1-bromo-1,1,2,3,3,3-hexafluoropropan-2-yl)-6-(difluoromethoxy)phenyl]quinoline-6-carboxamide 1-oxide] | – | – | – | – | 100 | 100 | – | 100 | 100 | 95 | 100 | –
Cc1cc(C(F)(C(F)(F)F)C(F)(F)F)cc(C)c1NC(=O)c1ccc2ncc(Cl)cc2c1 [Compound No. 2-213, 3-chloro-N-[4-(1,1,1,2,3,3,3-heptafluoropropan-2-yl)-2,6-dimethylphenyl]quinoline-6-carboxamide] | – | – | – | – | 100 | 100 | 100 | 100 | 80 | – | – | –
